Source: publication PMC8550792, “Evolution of kinase polypharmacology across HSP90 drug discovery” (Cell Chemical Biology, 2021)

Tests used:
Assay in all cases: biochemical
Type in all cases: biochemical
382 unique human kinases [1] = target: T1, 382 unique human kinases (Homo sapiens, UniProt P10721, D820E); conditions: c-Kit (D820E), 10 uM; for remaining activity at 10 µM: read-out: % Enzyme Activity (relative to DMSO controls)
T1 construct: purchased Reaction Biology (HotSpot contract assay)

382 unique human kinases [2] = target: T2, 382 unique human kinases (Homo sapiens, UniProt Q12866, A708S); conditions: c-MER (A708S), 10 uM; for remaining activity at 10 µM: read-out: % Enzyme Activity (relative to DMSO controls)
T2 construct: purchased Reaction Biology (HotSpot contract assay)
T2 sequence (Q12866 21-999 A708S): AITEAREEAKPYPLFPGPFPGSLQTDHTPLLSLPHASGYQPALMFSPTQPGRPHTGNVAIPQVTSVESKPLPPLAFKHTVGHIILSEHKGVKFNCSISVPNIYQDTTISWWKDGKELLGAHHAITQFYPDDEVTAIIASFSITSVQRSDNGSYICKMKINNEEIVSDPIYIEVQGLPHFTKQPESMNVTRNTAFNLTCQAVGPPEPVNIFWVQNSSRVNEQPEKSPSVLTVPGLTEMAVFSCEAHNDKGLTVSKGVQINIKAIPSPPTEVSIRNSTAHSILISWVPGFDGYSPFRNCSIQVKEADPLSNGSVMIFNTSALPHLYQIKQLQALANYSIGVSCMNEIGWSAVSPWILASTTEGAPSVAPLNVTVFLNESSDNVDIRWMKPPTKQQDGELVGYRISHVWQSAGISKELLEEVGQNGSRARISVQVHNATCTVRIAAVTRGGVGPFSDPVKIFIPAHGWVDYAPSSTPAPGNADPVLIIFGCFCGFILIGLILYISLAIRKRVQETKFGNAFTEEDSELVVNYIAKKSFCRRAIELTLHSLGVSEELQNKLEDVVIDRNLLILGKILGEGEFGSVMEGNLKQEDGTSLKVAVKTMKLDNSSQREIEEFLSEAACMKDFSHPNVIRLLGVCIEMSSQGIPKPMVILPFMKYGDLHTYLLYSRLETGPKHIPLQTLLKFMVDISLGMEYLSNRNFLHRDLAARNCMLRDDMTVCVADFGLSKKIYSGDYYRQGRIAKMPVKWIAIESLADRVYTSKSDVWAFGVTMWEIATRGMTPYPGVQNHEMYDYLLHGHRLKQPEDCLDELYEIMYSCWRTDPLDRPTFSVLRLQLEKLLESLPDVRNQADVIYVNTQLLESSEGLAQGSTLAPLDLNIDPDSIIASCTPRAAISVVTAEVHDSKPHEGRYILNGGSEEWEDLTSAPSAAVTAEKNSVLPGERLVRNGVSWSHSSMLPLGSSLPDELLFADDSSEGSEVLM

382 unique human kinases [3] = target: T3, 382 unique human kinases (Homo sapiens, UniProt Q7L7X3); conditions: kinase TAOK1, compound 10 uM; for remaining activity at 10 µM: read-out: % Enzyme Activity (relative to DMSO controls)
T3 construct: purchased Reaction Biology (HotSpot contract assay)
T3 sequence (Q7L7X3 1-1001): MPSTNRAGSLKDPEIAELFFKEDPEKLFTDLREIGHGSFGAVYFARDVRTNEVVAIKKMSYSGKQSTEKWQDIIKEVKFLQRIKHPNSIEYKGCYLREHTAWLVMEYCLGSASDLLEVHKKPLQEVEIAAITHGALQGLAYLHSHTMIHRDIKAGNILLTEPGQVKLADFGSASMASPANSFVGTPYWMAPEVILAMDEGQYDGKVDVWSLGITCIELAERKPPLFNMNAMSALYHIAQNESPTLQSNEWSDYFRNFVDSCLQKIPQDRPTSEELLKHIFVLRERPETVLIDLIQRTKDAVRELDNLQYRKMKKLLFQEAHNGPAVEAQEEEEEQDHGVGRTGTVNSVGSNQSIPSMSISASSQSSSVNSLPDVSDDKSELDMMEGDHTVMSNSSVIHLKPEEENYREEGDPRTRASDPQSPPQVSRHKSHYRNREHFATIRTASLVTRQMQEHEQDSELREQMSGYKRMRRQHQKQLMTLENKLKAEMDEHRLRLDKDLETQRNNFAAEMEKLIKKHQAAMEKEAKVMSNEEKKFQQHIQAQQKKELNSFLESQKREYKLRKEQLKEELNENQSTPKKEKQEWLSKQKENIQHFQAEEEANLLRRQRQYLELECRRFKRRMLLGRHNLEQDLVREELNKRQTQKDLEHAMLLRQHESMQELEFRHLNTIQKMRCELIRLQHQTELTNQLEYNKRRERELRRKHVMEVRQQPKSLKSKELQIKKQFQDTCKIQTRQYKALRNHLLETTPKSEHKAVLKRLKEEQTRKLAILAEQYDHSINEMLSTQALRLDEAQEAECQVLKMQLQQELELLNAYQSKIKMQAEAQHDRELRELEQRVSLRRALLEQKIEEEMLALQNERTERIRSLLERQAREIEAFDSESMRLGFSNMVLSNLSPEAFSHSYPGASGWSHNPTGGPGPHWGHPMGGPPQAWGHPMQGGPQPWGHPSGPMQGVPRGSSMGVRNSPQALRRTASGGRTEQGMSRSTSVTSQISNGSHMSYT

382 unique human kinases [4] = target: T4, 382 unique human kinases (Homo sapiens, UniProt P09619); conditions: kinase PDGFRb, compound 10 uM; for remaining activity at 10 µM: read-out: % Enzyme Activity (relative to DMSO controls)
T4 construct: purchased Reaction Biology (HotSpot contract assay)

382 unique human kinases [5] = target: T5, 382 unique human kinases (Homo sapiens, UniProt P43403, Y319F); conditions: ZAP70 (Y319F), 10 uM; for remaining activity at 10 µM: read-out: % Enzyme Activity (relative to DMSO controls)
T5 construct: purchased Reaction Biology (HotSpot contract assay)
T5 sequence (P43403 1-619 Y319F): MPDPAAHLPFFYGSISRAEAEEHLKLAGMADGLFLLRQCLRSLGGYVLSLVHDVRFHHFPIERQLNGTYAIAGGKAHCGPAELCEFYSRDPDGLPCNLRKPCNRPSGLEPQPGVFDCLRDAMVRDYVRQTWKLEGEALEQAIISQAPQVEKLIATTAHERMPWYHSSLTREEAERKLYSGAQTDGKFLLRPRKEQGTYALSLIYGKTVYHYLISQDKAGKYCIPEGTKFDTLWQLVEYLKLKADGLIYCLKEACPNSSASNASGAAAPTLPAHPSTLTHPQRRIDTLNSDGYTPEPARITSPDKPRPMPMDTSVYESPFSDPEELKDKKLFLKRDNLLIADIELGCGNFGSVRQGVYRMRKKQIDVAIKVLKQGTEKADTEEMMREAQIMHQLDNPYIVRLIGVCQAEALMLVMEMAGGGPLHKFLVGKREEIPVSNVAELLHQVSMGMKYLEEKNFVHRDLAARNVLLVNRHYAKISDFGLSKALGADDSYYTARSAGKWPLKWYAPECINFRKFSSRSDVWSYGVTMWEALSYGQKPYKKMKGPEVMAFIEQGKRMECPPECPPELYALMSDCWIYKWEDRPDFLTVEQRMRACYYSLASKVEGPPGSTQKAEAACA

382 unique human kinases [6] = target: T6, 382 unique human kinases (Homo sapiens, UniProt Q7KZI7); conditions: MARK2/PAR-1Ba, 10 uM; for remaining activity at 10 µM: read-out: % Enzyme Activity (relative to DMSO controls)
T6 construct: purchased Reaction Biology (HotSpot contract assay)

382 unique human kinases [7] = target: T7, 382 unique human kinases (Homo sapiens, UniProt Q16644); conditions: MAPKAPK3, 10 uM; for remaining activity at 10 µM: read-out: % Enzyme Activity (relative to DMSO controls)
T7 construct: purchased Reaction Biology (HotSpot contract assay)
T7 sequence (Q16644 whole entry): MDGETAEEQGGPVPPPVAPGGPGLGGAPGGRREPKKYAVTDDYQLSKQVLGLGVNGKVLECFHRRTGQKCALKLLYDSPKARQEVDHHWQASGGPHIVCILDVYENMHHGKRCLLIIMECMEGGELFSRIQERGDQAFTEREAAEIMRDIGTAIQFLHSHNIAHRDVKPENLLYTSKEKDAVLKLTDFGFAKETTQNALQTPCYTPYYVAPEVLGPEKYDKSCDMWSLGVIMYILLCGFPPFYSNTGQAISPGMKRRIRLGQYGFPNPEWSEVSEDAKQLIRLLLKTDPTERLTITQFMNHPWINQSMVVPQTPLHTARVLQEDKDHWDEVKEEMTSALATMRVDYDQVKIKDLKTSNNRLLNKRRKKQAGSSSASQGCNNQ

T4 sequence (P09619 33-1106): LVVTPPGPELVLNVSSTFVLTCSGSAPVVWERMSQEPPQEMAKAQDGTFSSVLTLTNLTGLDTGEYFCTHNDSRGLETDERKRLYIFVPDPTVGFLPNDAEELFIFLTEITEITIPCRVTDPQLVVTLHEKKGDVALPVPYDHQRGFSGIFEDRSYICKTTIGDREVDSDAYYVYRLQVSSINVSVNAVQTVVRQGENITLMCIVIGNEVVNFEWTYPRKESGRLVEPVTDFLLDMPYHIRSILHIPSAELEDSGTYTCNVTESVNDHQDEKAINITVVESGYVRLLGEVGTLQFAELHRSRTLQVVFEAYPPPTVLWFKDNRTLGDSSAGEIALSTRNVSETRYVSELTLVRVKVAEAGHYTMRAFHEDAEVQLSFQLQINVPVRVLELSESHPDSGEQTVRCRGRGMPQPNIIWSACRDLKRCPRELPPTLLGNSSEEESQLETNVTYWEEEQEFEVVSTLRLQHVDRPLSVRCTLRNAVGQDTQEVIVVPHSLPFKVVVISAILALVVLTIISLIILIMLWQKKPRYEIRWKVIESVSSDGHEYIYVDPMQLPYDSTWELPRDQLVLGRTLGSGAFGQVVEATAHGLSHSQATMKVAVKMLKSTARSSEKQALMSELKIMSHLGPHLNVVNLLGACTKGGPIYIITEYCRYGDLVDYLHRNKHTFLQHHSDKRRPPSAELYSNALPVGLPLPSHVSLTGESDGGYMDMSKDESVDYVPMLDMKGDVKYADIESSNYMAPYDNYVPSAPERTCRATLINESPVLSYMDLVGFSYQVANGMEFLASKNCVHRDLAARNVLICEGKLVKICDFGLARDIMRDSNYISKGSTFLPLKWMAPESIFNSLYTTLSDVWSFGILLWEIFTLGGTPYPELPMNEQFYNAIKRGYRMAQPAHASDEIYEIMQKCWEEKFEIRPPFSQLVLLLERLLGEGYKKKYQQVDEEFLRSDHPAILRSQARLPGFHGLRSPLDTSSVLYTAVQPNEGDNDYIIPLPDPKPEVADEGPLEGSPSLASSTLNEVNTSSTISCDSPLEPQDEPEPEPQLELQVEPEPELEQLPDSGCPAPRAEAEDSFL
T6 sequence (Q7KZI7 whole entry): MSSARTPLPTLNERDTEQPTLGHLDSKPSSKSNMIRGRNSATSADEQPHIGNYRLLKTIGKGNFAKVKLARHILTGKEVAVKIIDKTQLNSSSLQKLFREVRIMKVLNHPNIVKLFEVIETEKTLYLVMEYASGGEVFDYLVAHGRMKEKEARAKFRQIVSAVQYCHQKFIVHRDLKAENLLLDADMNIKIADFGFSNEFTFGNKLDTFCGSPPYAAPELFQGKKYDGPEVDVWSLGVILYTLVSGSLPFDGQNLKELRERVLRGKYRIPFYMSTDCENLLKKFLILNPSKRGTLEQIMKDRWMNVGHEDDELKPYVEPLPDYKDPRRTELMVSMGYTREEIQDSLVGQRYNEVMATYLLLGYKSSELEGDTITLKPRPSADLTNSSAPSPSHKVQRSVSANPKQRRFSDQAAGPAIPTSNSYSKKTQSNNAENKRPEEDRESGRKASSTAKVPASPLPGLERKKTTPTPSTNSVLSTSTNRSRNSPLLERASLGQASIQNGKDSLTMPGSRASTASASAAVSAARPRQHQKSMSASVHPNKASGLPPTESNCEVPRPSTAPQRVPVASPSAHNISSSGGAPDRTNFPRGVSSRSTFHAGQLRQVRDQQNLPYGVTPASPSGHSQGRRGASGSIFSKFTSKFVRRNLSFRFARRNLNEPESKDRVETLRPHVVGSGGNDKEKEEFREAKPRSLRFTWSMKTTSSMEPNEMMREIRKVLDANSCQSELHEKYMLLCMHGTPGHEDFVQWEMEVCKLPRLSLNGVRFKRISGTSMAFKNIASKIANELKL
T1 sequence (P10721 26-976 D820E): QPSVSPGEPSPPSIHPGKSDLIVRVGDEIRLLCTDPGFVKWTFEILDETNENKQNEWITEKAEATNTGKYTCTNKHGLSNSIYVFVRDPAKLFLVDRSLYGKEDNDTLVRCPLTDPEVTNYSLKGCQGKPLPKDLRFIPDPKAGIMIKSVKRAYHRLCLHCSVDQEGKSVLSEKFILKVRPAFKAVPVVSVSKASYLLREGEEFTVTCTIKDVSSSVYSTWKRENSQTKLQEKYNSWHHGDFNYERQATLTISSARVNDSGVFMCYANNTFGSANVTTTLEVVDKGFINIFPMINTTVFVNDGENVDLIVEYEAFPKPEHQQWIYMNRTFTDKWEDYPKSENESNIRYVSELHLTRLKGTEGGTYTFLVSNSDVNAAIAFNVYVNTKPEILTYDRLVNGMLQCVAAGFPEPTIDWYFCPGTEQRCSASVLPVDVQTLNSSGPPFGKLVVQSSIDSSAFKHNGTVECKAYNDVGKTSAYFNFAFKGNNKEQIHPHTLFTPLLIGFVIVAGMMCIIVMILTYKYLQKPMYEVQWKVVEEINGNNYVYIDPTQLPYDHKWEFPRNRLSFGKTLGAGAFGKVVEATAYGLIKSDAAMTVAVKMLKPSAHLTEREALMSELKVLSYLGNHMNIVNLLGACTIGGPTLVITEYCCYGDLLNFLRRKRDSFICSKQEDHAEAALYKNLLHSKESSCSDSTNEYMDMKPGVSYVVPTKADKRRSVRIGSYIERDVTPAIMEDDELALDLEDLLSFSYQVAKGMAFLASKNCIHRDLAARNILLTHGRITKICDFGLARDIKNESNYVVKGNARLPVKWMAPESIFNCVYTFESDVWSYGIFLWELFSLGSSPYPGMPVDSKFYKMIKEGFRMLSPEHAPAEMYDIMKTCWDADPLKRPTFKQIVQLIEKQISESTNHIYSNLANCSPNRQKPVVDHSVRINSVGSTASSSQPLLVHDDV

Row | Structure (SMILES) | remaining activity at 10 µM (382 unique human kinases [1]) | remaining activity at 10 µM (382 unique human kinases [2]) | remaining activity at 10 µM (382 unique human kinases [3]) | remaining activity at 10 µM (382 unique human kinases [4]) | remaining activity at 10 µM (382 unique human kinases [5]) | remaining activity at 10 µM (382 unique human kinases [6]) | remaining activity at 10 µM (382 unique human kinases [7]) | % Enzyme Activity (relative to DMSO controls) (382 unique human kinases [1]) | % Enzyme Activity (relative to DMSO controls) (382 unique human kinases [2]) | % Enzyme Activity (relative to DMSO controls) (382 unique human kinases [3]) | % Enzyme Activity (relative to DMSO controls) (382 unique human kinases [4]) | % Enzyme Activity (relative to DMSO controls) (382 unique human kinases [5]) | % Enzyme Activity (relative to DMSO controls) (382 unique human kinases [6]) | % Enzyme Activity (relative to DMSO controls) (382 unique human kinases [7])
1 | CC(C)c1cc(-c2n[nH]c(=O)n2-c2ccc3c(ccn3C)c2)c(O)cc1O [Ganetespib (STA9090)] | 72.5% | 72.7% | 88.8% | 92.1% | 88.4% | 75.7% | – | – | – | – | – | – | – | –
2 | CC(C)c1cc(-c2n[nH]c(=O)n2-c2ccc3c(ccn3C)c2)c(O)cc1O [Ganetespib] | – | – | – | – | – | – | 97.3% | – | – | – | – | – | – | –
3 | CCNC(=O)c1noc(-c2cc(C(C)C)c(O)cc2O)c1-c1ccc(CN2CCOCC2)cc1 [Luminespib (AUY-922)] | 88.4% | 98.6% | 95% | 83.2% | 68.9% | 104% | – | 88.12% | 96.08% | 92.28% | 81.53% | 63.89% | 102.26% | –
4 | CCNC(=O)c1noc(-c2cc(C(C)C)c(O)cc2O)c1-c1ccc(CN2CCOCC2)cc1 [Luminespib] | – | – | – | – | – | – | 105% | – | – | – | – | – | – | 103.47%
